± gives the expanded uncertainty stated by the source.
Conditions: Liquid, Closed cell (Static) method

FC(F)C(F)F [1,1,2,2-tetrafluoroethane]
vapor or sublimation pressure (278.15 K): 271.3 ± 1.3 kPa | vapor or sublimation pressure (288.15 K): 382.9 ± 1.5 kPa

F/C=C/C(F)(F)F [trans-1,3,3,3-tetrafluoropropene]
vapor or sublimation pressure (258.15 K): 120.2 ± 1 kPa | vapor or sublimation pressure (268.15 K): 179.3 ± 1 kPa | vapor or sublimation pressure (278.15 K): 259.2 ± 1.1 kPa | vapor or sublimation pressure (288.15 K): 364.2 ± 1.1 kPa
